Data set [1] in a line: Neutral Red toxicity in Vero 76 cells, secondary (Zika-094). The conditions noted are these: monkey.
In data set [2] the test system is Zika Virus. Briefly: Zika prevention, virus yield reduction (VYR), Huh7, 24 h pre-incubation (Zika-138). The conditions noted are these: for Virus Titer: 24 hr pre-incubation, Huh7 cells. The data set is classed as cell-based. The method, then:
An experiment was carried out as specified in Example 8. In a Zika Prevention Trial, MPA was pre-incubated with human cells 4 hours or 24 hours before Zika virus infection.

Data set [3] relates to Adenovirus5 Adenoid75. Briefly: Adenovirus 5 CPE inhibition, A549 (ADV-0172). The data set is classed as cell-based. The conditions noted are these: for EC50: Human mastadenovirus C, A549, read-out: EC50.
In data set [4] the test system is Influenza A virus H1N1 California/07/2009. Briefly: microbe, parasite or virus in culture. The data set is classed as cell-based.

≈ marks a conversion by molar mass, not a printed value. Where two headings read alike, the source gives them in different places. Where only a bound is given, the exact number is not on record here.

The term CC50 denotes the concentration that lowers cell viability or growth by half. One may read the EC90 as the point of the concentration-response curve where the effect stands at 90%. As usually defined, the EC50 is the concentration giving half of the maximal effect. Molecule `COc1c(C)c2c(c(O)c1C/C=C(\C)CCC(=O)O)C(=O)OC2` [EP1601, 6-(4-hydroxy-6-methoxy-7-methyl-3-oxo-1,3-dihydroisobenzofuran-5-yl)-4-methyl-hex-4-enoic acid] came in with a CC50 in data set [1] of 2.3 µg/mL (≈ 7.18 µM). Also, the “virus in VYR assay” value in data set [2] (Huh7 cells pre-incubated with drug for 24 hrs) was “reduced virus to zero”. For the same molecule, the “Virus Titer” value was 4.5 Log10 CCID50/0.1 ml in data set [2] (MPA 0.1 μg/ml); 3.5 Log10 CCID50/0.1 ml in data set [2] (MPA 1 μg/ml); “<.67 Log10 CCID50/0.1 ml” in data set [2] (MPA 10 μg/ml); “<.67 Log10 CCID50/0.1 ml” in data set [2] (MPA 32 μg/ml); “<.67 Log10 CCID50/0.1 ml” in data set [2] (MPA 100 μg/ml). In addition, the EC90 in data set [2] (Zika virus, Huh-7, Visual (Virus yield reduction), Huh7, pre-incubated 24 hours prior to infection, read-out: EC90) was found to be 0.78 µg/mL (≈ 2.43 µM). Also, the “prevention of infection by Zika virus” value in data set [2] (given 24 hours before infection) is reported as “completely prevent infection”. For the same molecule, the “activity against Adenovirus 5” value in data set [3] is recorded as “active”. In addition, the EC50 in data set [3] (A549, Neutral Red (Cytopathic effect)) was 0.31 µg/mL (≈ 0.968 µM); in data set [3] (A549, Visual (Cytopathic effect)) it was 0.32 µg/mL (≈ 0.999 µM); in data set [4] (Influenza A virus, H1N1, MDCK), less than 100 nM. In addition, in data set [4], the “activity against pandemic Influenza A H1N1 (California/07/2009)” value is “highly active”.

Source of the values: patent US20250144066A1, “Prevention and Treatment of Parasitic Infections” (priority 2017, published 2025).
